# Test results published in US20100016367A1, “BIS-PYRINIDIUM COMPOUNDS” (priority 2006, published 2010).
# Columns and labels:
# Experiment in all cases: In-vitro activity against dermatophytes, MIC
# Assay type in all cases: cell-based
# Trichophyton tonsurans = conditions: 16 isolates
# Trichophyton soudanense = conditions: 3 isolates
# Epidermophyton floccosum = conditions: 5 isolates
# Trichophyton rubrum = conditions: 20 isolates
# [1] = test system: Trichophyton mentagrophytes; conditions: 18 isolates
# Microsporum gypseum = conditions: 5 isolates
# Microsporum cookie = conditions: 2 isolates
# Microsporum canis = conditions: 5 isolates
# Trichophyton violaceum = conditions: 3 isolates
compound,measurement,setting,value
"CCC(C)n1ncn(-c2ccc(N3CCN(c4ccc(OCC5COC(Cn6cncn6)(c6ccc(Cl)cc6Cl)O5)cc4)CC3)cc2)c1=O (stereo not drawn) [ITC, Itraconazole]","MIC Range, Trichophyton tonsurans",Trichophyton tonsurans,0.25 to 4 µg/mL
same,MIC50,Trichophyton tonsurans; Trichophyton tonsurans,2 µg/mL
same,MIC90,Trichophyton tonsurans; Trichophyton tonsurans,4 µg/mL
same,MIC,"Trichophyton tonsurans; Trichophyton tonsurans, read-out: MIC GM, Trichophyton tonsurans",1.65 µg/mL
same,"MIC Range, Trichophyton soudanense",Trichophyton soudanense,1 to 4 µg/mL
same,MIC,"Trichophyton soudanense; Trichophyton soudanense, read-out: MIC GM, Trichophyton soudanense",3.42 µg/mL
same,"MIC Range, Epidermophyton floccosum",Epidermophyton floccosum,0.063 to 0.5 µg/mL
same,MIC,"Epidermophyton floccosum; Epidermophyton floccosum, read-out: MIC GM, Epidermophyton floccosum",0.226 µg/mL
same,"MIC Range, Trichophyton rubrum",Trichophyton rubrum,0.25 to 4 µg/mL
same,MIC50,"Trichophyton rubrum; Trichophyton rubrum, MIC at which 50% of the isolates were inhibited",2 µg/mL
same,MIC90,"Trichophyton rubrum; Trichophyton rubrum, MIC at which 90% of the isolates were inhibited",4 µg/mL
same,MIC,"Trichophyton rubrum; Trichophyton rubrum, read-out: MIC GM (geometric mean of the MICs), Trichophyton rubrum",1.96 µg/mL
same,"MIC Range, Trichophyton mentagrophytes",[1],0.125 to 4 µg/mL
same,MIC50,[1]; Trichophyton mentagrophytes,2 µg/mL
same,MIC90,[1]; Trichophyton mentagrophytes,4 µg/mL
same,MIC,"[1]; Trichophyton mentagrophytes, read-out: MIC GM, Trichophyton mentagrophytes",1.68 µg/mL
same,"MIC Range, Microsporum gypseum",Microsporum gypseum,1 to 8 µg/mL
same,MIC,"Microsporum gypseum; Nannizzia gypsea, read-out: MIC GM, Microsporum gypseum",3.68 µg/mL
same,"MIC Range, Microsporum cookie",Microsporum cookie,4 to 8 µg/mL
same,MIC,"Microsporum cookie; Microsporum, read-out: MIC GM, Microsporum cookie",6 µg/mL
same,"MIC Range, Microsporum canis",Microsporum canis,0.25 to 8 µg/mL
same,MIC,"Microsporum canis; Microsporum canis, read-out: MIC GM, Microsporum canis",1.23 µg/mL
same,"MIC Range, Trichophyton violaceum",Trichophyton violaceum,2 to 8 µg/mL
same,MIC,"Trichophyton violaceum; Trichophyton violaceum, read-out: MIC GM, Trichophyton violaceum",3.3 µg/mL
